Results taken from US20100003191A1, “AURONE DERIVATIVE-CONTAINING COMPOSITION FOR DIAGNOSIS” (NAGASAKI UNIVERSITY, priority 2006, published 2010).

Columns and labels:
Aβ(1-42) aggregate = biological target: T1, Aβ(1-42) aggregate (Homo sapiens, UniProt P05067); experiment: In vitro binding experiment of [125I]-labeled aurone derivatives using Aβ(1-42) aggregates; conditions: [125I]-labeled compounds, Ab(1-42) aggregates; for intensity of the binding property to Ab aggregates (order): radioactivity remaining on filter, FIG. 4
T1 construct: Amyloid (3 protein (Human, 1-42) [TFA form] was purchased from Peptide Institute, Inc); purchased Peptide Institute, Inc
T1 sequence (P05067 672-713 limits assumed): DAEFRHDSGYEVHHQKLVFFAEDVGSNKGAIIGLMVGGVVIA
Protocol: Aβ aggregates were prepared by dissolving in a buffer containing 10 mM sodium phosphate and 1 mM EDTA (pH 7.4) at a concentration of 0.5 mg/mL and incubating at 37° C. for 42 h. The binding experiment was performed using 12×75 mm borosilicate glass tubes. [^125I]IMPY used for comparison was prepared according to the method described previously (Zhuang Z P, Kung M P, Wilson A, Lee C W, Plossi K, Hou C, Holzman D M, Kung H F. Structure-activity relationship of imidazo[1,2-a]pyridines as ligands for detecting β-amyloid plaques in the brain. J. Med. Chem. 2003, 46(2): 237-43). 900 μL of 10% ethanol solution, 50 μL of [^125I]-labeled aurone derivative with various concentrations (in 10% aqueous ethanol) or 50 μL of [^125I]IMPY, and 50 μL (29 nM) of an Aβ(1-42) aggregate solution were mixed, and the mixture was allowed to stand at room temperature for 3 h. Aβ3 aggregate-bound aurone derivative and nonbound aurone derivative were separated with a Brandel M-24R cell harvester using Whatman GF/B filters. The radioactivities of substances remaining on the filter used for filtration were measured with a γ counter.
FIGS. 4 and 5 show the results of experiments in which aurone derivatives were reacted in the presence and absence of Ab aggregates; the reaction mixture was filtered with a cell harvester; and the remaining radioactivity on the filter was measured. […] The intensity of the binding property increased in the following order: [^125I] Compound 7>[^125I] Compound 12=[^125I] IMPY>[^125I] Compound 14=[^125I] Compound 17>[^125I] Compound 20 (FIG. 4). The binding property to Ab aggregates of those compounds with —NH2, OMe- and OH group in their side chains are lower than the binding property of [^125] IMPY. On the other hand, those compounds with NHMe- and NMe2 group show equal or higher binding property to Ab aggregates compared to the binding property of [^125I] IMPY. […] Among all, the binding of Compound 7 to Ab aggregates was equal or more than the binding of [^125I] IMPY which is clinically tested at present. Therefore, it has become clear that this compound satisfies a critical requirement as an imaging probe for amyloid β.

[1] = In vivo radioactivity distribution experiment of 125I-labeled aurone derivatives in normal mice (Example 2, Table 15); conditions: tail vein
Protocol: Animals were decapitated at 2, 10, 30 or 60 min after the injection, and the blood was collected. Then, major organs were removed, and weights and radioactivities thereof were measured.
In vivo radioactivity distribution experiments of ^125I-labeled aurone derivatives were performed using 5-week-old normal mice.

[2] = In vivo radioactivity biodistribution experiment in normal mice (Example 1, Table 13); design: species or system ddY mice
Protocol: ^125I-labeled compounds were diluted with 10% ethanol-containing physiological saline. […] After their blood was collected, organs were removed, and the weights and radioactivities thereof were measured.
When any of the aurone derivatives was used, sufficient radioactivity to perform imaging of intracerebral amyloid migrated to the brain from the early stage of injection (1.7-4.6% ID/g). […] It was also shown that, in any of the aurone derivatives, in vivo radioactivity behavior is discharged mainly from the liver to the bile duct and the intestinal tract.

Nc1ccc(/C=C2\Oc3ccc(I)cc3C2=O)cc1 [Compound 14, 5-iodo-4′-aminoauron]
intensity of the binding property to Ab aggregates (order) (Aβ(1-42) aggregate): [^125I] Compound 14=[^125I] Compound 17

O=C1/C(=C/c2ccc(OCCOCCO)cc2)Oc2ccc([125I])cc21 [[125I]27]
Radioactivity distribution, Blood, Mean ([1]; 2 min after injection): 3.61 % ID/g | Radioactivity distribution, Blood, Mean ([1]; 10 min after injection): 5.18 % ID/g | Radioactivity distribution, Blood, Mean ([1]; 30 min after injection): 1.11 % ID/g | Radioactivity distribution, Blood, Mean ([1]; 60 min after injection): 0.68 % ID/g | Radioactivity distribution, Brain, Mean ([1]; 2 min after injection): 3.69 % ID/g | Radioactivity distribution, Brain, Mean ([1]; 10 min after injection): 1.53 % ID/g | Radioactivity distribution, Brain, Mean ([1]; 30 min after injection): 0.38 % ID/g | Radioactivity distribution, Brain, Mean ([1]; 60 min after injection): 0.16 % ID/g

CNc1ccc(/C=C2\Oc3ccc(I)cc3C2=O)cc1 [Compound 12, 5-iodo-4′-methylaminoaurone]
intensity of the binding property to Ab aggregates (order) (Aβ(1-42) aggregate): [^125I] Compound 12=[^125I] IMPY

O=C1/C(=C/c2ccc(O)cc2)Oc2ccc(I)cc21 [Compound 20, 5-iodo-4′-hydroxyaurone]
intensity of the binding property to Ab aggregates (order) (Aβ(1-42) aggregate): >[^125I] Compound 20

CN(C)c1ccc(/C=C2\Oc3ccc(I)cc3C2=O)cc1 [Compound 7, 5-iodo-4′-dimethylaminoaurone]
binding property to Ab aggregates compared with [125I]IMPY (Aβ(1-42) aggregate): equal or more than the binding of [^125I] IMPY | intensity of the binding property to Ab aggregates (order) (Aβ(1-42) aggregate): [^125I] Compound 7>[^125I] Compound 12

CN(C)c1ccc(-c2cn3cc([125I])ccc3n2)cc1 [[^125I] IMPY, reference compound]
intensity of the binding property to Ab aggregates (order) (Aβ(1-42) aggregate): [^125I] IMPY>[^125I] Compound 14

O=C1/C(=C/c2ccc(OCCOCCOCCO)cc2)Oc2ccc([125I])cc21 [[125I]28]
Radioactivity distribution, Blood, Mean ([1]; 2 min after injection): 4.75 % ID/g | Radioactivity distribution, Blood, Mean ([1]; 10 min after injection): 2.70 % ID/g | Radioactivity distribution, Blood, Mean ([1]; 30 min after injection): 1.13 % ID/g | Radioactivity distribution, Blood, Mean ([1]; 60 min after injection): 0.55 % ID/g | Radioactivity distribution, Brain, Mean ([1]; 2 min after injection): 2.81 % ID/g | Radioactivity distribution, Brain, Mean ([1]; 10 min after injection): 0.84 % ID/g | Radioactivity distribution, Brain, Mean ([1]; 30 min after injection): 0.18 % ID/g | Radioactivity distribution, Brain, Mean ([1]; 60 min after injection): 0.08 % ID/g

O=C1/C(=C/c2ccc(OCCO)cc2)Oc2ccc([125I])cc21 [[125I]26]
Radioactivity distribution, Blood, Mean ([1]; 2 min after injection): 4.97 % ID/g | Radioactivity distribution, Blood, Mean ([1]; 10 min after injection): 3.88 % ID/g | Radioactivity distribution, Blood, Mean ([1]; 30 min after injection): 2.38 % ID/g | Radioactivity distribution, Blood, Mean ([1]; 60 min after injection): 1.24 % ID/g | Radioactivity distribution, Brain, Mean ([1]; 2 min after injection): 4.51 % ID/g | Radioactivity distribution, Brain, Mean ([1]; 10 min after injection): 1.49 % ID/g | Radioactivity distribution, Brain, Mean ([1]; 30 min after injection): 0.24 % ID/g | Radioactivity distribution, Brain, Mean ([1]; 60 min after injection): 0.09 % ID/g

Nc1ccc(/C=C2\Oc3ccc([125I])cc3C2=O)cc1 [[^125I]14]
Biodistribution of radioactivity, Blood ([2]; 2 min after injection): 3.64 (0.78) % injected dose per gram | Biodistribution of radioactivity, Blood ([2]; 10 min after injection): 4.38 (0.52) % injected dose per gram | Biodistribution of radioactivity, Blood ([2]; 30 min after injection): 2.87 (0.82) % injected dose per gram | Biodistribution of radioactivity, Blood ([2]; 60 min after injection): 2.35 (1.38) % injected dose per gram | Biodistribution of radioactivity, Brain ([2]; 2 min after injection): 4.57 (0.27) % injected dose per gram | Biodistribution of radioactivity, Brain ([2]; 10 min after injection): 1.51 (0.17) % injected dose per gram | Biodistribution of radioactivity, Brain ([2]; 30 min after injection): 0.49 (0.06) % injected dose per gram | Biodistribution of radioactivity, Brain ([2]; 60 min after injection): 0.26 (0.03) % injected dose per gram | Biodistribution of radioactivity, Heart ([2]; 2 min after injection): 6.77 (0.74) % injected dose per gram | Biodistribution of radioactivity, Heart ([2]; 10 min after injection): 2.69 (0.45) % injected dose per gram | Biodistribution of radioactivity, Heart ([2]; 30 min after injection): 1.30 (0.41) % injected dose per gram | Biodistribution of radioactivity, Heart ([2]; 60 min after injection): 0.98 (0.25) % injected dose per gram | Biodistribution of radioactivity, Intestine ([2]; 2 min after injection): 3.12 (0.85) % injected dose per gram | Biodistribution of radioactivity, Intestine ([2]; 10 min after injection): 5.06 (1.51) % injected dose per gram | Biodistribution of radioactivity, Intestine ([2]; 30 min after injection): 15.47 (5.48) % injected dose per gram | Biodistribution of radioactivity, Intestine ([2]; 60 min after injection): 18.30 (7.21) % injected dose per gram | Biodistribution of radioactivity, Kidney ([2]; 2 min after injection): 10.87 (2.95) % injected dose per gram | Biodistribution of radioactivity, Kidney ([2]; 10 min after injection): 13.12 (4.30) % injected dose per gram | Biodistribution of radioactivity, Kidney ([2]; 30 min after injection): 12.05 (5.44) % injected dose per gram | Biodistribution of radioactivity, Kidney ([2]; 60 min after injection): 4.95 (1.82) % injected dose per gram | Biodistribution of radioactivity, Liver ([2]; 2 min after injection): 9.17 (3.45) % injected dose per gram | Biodistribution of radioactivity, Liver ([2]; 10 min after injection): 8.48 (2.84) % injected dose per gram | Biodistribution of radioactivity, Liver ([2]; 30 min after injection): 7.64 (2.19) % injected dose per gram | Biodistribution of radioactivity, Liver ([2]; 60 min after injection): 5.85 (1.09) % injected dose per gram | Biodistribution of radioactivity, Lung ([2]; 2 min after injection): 9.06 (0.47) % injected dose per gram | Biodistribution of radioactivity, Lung ([2]; 10 min after injection): 7.01 (0.28) % injected dose per gram | Biodistribution of radioactivity, Lung ([2]; 30 min after injection): 5.83 (0.55) % injected dose per gram | Biodistribution of radioactivity, Lung ([2]; 60 min after injection): 5.23 (1.44) % injected dose per gram | Biodistribution of radioactivity, Pancreas ([2]; 2 min after injection): 4.96 (0.44) % injected dose per gram | Biodistribution of radioactivity, Pancreas ([2]; 10 min after injection): 2.01 (0.49) % injected dose per gram | Biodistribution of radioactivity, Pancreas ([2]; 30 min after injection): 1.22 (0.21) % injected dose per gram | Biodistribution of radioactivity, Pancreas ([2]; 60 min after injection): 0.87 (0.30) % injected dose per gram | Biodistribution of radioactivity, Spleen ([2]; 2 min after injection): 2.29 (0.36) % injected dose per gram | Biodistribution of radioactivity, Spleen ([2]; 10 min after injection): 1.64 (0.29) % injected dose per gram | Biodistribution of radioactivity, Spleen ([2]; 30 min after injection): 0.84 (0.29) % injected dose per gram | Biodistribution of radioactivity, Spleen ([2]; 60 min after injection): 0.92 (0.07) % injected dose per gram | Biodistribution of radioactivity, Stomach ([2]; 2 min after injection): 1.59 (0.71) % injected dose per organ | Biodistribution of radioactivity, Stomach ([2]; 10 min after injection): 2.94 (0.86) % injected dose per organ | Biodistribution of radioactivity, Stomach ([2]; 30 min after injection): 4.01 (2.29) % injected dose per organ | Biodistribution of radioactivity, Stomach ([2]; 60 min after injection): 3.49 (2.00) % injected dose per organ

COc1ccc(/C=C2\Oc3ccc(I)cc3C2=O)cc1 [Compound 17, 5-iodo-4′-methoxyaurone]
intensity of the binding property to Ab aggregates (order) (Aβ(1-42) aggregate): [^125I] Compound 17>[^125I] Compound 20
